ChEMBL document CHEMBL1146226, “Synthesis of desformylflustrabromine and its evaluation as an alpha4beta2 and alpha7 nACh receptor modulator” (Bioorg Med Chem Lett, 2007)

Experiments:
[1] = target: T1, Neuronal acetylcholine receptor; alpha4/beta2 (Homo sapiens, UniProt P17787+P43681); experiment: Activity at human alpha-4-beta-2 nACh receptor expressed in Xenopus oocytes assessed as inhibition of acetyl chlone-induced currents by two-electrode voltage clamp method; assay type: cell-based, Oocyte
[2] = target: Neuronal acetylcholine receptor subunit alpha-7 (Homo sapiens, UniProt P36544); experiment: Activity at human alpha7 nACh receptor expressed in Xenopus oocytes assessed as inhibition of acetyl chlone-induced currents by two-electrode voltage clamp method; assay type: cell-based, Oocyte
[3] = target: T1, Neuronal acetylcholine receptor; alpha4/beta2; experiment: Activity at human alpha-4-beta-2 nACh receptor expressed in Xenopus oocytes assessed as potentiation of acetyl chlone-induced currents by two-electrode voltage clamp method relative to control; assay type: cell-based; conditions: Oocyte

Sequence of Neuronal acetylcholine receptor subunit alpha-7 (P36544 whole entry): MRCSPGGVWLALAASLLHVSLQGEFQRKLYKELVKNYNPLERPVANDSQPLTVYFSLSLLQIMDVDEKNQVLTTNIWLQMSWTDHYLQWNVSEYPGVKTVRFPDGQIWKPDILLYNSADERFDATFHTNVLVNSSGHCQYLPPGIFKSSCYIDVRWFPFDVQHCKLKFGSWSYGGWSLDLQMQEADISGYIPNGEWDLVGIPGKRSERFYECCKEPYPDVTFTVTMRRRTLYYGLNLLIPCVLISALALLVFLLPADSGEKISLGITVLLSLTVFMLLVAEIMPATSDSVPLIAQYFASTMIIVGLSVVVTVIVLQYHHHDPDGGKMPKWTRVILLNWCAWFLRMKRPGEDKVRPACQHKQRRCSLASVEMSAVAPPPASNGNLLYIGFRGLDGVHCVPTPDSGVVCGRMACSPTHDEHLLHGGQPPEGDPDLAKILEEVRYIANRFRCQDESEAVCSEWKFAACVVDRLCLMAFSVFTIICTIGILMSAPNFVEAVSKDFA
T1 sequence (P17787 whole entry): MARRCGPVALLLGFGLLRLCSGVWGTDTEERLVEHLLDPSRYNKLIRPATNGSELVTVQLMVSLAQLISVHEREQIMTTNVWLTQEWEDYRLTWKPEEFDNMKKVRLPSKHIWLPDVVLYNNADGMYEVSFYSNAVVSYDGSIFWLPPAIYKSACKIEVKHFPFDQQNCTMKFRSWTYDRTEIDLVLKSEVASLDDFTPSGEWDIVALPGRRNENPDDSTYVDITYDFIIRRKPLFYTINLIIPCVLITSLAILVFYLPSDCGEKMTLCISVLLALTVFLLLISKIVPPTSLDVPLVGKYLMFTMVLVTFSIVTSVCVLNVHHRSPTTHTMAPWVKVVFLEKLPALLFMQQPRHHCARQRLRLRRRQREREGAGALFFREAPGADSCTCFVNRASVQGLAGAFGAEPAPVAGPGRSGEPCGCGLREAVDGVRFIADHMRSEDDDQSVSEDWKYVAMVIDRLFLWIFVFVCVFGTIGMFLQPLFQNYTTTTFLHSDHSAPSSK
T1 sequence (P43681 whole entry): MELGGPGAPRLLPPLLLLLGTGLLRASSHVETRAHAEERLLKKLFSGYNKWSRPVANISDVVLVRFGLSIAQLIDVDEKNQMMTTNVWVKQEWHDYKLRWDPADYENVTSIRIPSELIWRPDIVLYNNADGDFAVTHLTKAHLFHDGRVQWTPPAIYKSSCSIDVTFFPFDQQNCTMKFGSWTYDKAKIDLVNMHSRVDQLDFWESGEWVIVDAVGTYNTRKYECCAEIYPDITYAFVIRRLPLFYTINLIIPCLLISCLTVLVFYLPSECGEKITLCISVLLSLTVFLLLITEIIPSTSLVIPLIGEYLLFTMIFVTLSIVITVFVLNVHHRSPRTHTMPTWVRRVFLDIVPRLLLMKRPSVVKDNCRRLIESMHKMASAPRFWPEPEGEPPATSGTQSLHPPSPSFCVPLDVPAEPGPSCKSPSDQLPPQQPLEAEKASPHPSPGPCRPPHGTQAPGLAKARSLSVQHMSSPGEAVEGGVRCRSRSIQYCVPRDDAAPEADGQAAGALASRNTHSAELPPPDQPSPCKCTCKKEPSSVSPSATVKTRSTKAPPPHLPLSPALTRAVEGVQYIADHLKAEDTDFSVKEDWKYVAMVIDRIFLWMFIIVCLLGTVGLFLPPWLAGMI

Row | Structure (SMILES) | IC50 [1] [µM] | IC50 [2] [µM] | Activity [3] [%]
1 | C=CC(C)(C)c1[nH]c2cc(Br)ccc2c1CCNC [DESFORMYLFLUSTRABROMINE] | 150 | 44 | 295
2 | CNCCc1cn(CC=C(C)C)c2cc(Br)ccc12 [DEFORMYLFLUSTRABROMINE B] | – | 209 | –
